Data published in ChEMBL document CHEMBL4000199, “Synthesis and biological evaluation of novel hydroxybenzaldehyde-based kojic acid analogues as inhibitors of mushroom tyrosinase” (Bioorg Med Chem Lett, 2017).
Active and inactive are the calls of the source. The calls are words filed in the database; no cut-off is given here.

Columns and labels:
Tyrosinase = target: T1, Tyrosinase (Agaricus bisporus, UniProt O42713); assay: (§1) Inhibition of mushroom tyrosinase diphenolase activity assessed as reduction in dopachrome formation using L-DOPA as substrate preincubated for 20 mins followed by substrate addition measured for 1 min
T1 sequence (O42713 whole entry): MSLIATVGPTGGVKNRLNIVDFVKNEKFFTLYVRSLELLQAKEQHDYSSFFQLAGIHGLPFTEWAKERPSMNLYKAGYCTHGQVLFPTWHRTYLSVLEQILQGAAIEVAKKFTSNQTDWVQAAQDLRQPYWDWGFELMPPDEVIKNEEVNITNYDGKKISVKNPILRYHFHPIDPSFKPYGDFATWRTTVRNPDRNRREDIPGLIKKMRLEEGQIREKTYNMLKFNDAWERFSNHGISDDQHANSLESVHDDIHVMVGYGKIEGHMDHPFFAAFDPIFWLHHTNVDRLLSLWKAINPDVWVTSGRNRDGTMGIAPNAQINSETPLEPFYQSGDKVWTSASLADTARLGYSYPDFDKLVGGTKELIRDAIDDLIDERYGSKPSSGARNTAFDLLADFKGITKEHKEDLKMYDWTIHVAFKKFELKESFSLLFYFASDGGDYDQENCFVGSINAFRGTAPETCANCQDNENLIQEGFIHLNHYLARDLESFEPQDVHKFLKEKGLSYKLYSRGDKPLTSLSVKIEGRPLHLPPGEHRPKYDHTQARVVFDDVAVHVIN

Mushroom tyrosinase = Mushroom tyrosinase (Agaricus bisporus, UniProt O42713+Q00024+C7FF04+C7FF05); assay: Inhibition of mushroom tyrosinase using L-tyrosine as substrate measured after 20 mins
[1] = target: T2, Tyrosinase (Agaricus bisporus) (UniProt O42713); assay: as §1
T2 sequence (whole entry): T1 sequence (O42713 whole entry)

[2] = target: T2, Tyrosinase (Agaricus bisporus); assay: Competitive inhibition of mushroom tyrosinase up to 1.2 uM using varying levels of L-DOPA as substrate preincubated for 20 mins followed by substrate addition measured for 1 min by Lineweaver-Burk plot analysis

In the case of `Cc1ccc(-c2nnc(SCc3cc(=O)c(O)co3)n2NCc2ccccc2O)cc1`, the IC50 (Tyrosinase) is reported as 3.8 µM.

In the case of `COc1cc(/C=N/n2cnnc2SCc2cc(=O)c(O)co2)ccc1O`, the IC50 (Tyrosinase) is reported as 17.5 µM.

`O=c1cc(CSc2nncn2NCc2ccccc2O)occ1O` showed an IC50 (Tyrosinase) of 5.85 µM.

Work on `O=c1cc(CSc2nnc(-c3ccc(Cl)cc3)n2NCc2ccccc2O)occ1O` yielded an IC50 (Tyrosinase) of 1.71 µM.

In the case of `O=c1cc(CSc2nnc(-c3cccc(Cl)c3)n2NCc2ccccc2O)occ1O`, the IC50 (Tyrosinase) is reported as 2.5 µM.

`O=c1cc(CSc2nnc(-c3ccccc3Cl)n2/N=C/c2ccc(O)c(O)c2)occ1O` gave an IC50 (Tyrosinase) of 5.2 µM.

`O=c1cc(CSc2nncn2/N=C/c2ccc(O)cc2)occ1O` gave an IC50 (Tyrosinase) of 8.54 µM.

In the case of `O=c1cc(CSc2nnc(-c3ccccc3)n2NCc2ccccc2O)occ1O`, the IC50 (Tyrosinase) is reported as 1.5 µM.

In the case of `Cc1nnc(SCc2cc(=O)c(O)co2)n1NCc1ccc(O)cc1O`, the IC50 (Tyrosinase) is reported as 5.8 µM.

`O=c1cc(CSc2ccc(O)cc2)occ1O` showed an IC50 (Mushroom tyrosinase) of 0.54 µM.

For `Cc1nnc(SCc2cc(=O)c(O)co2)n1NCc1cccc(O)c1`, the IC50 (Tyrosinase) was 12.5 µM.

`Cc1nnc(SCc2cc(=O)c(O)co2)n1NCc1ccccc1O` showed an IC50 (Tyrosinase) of 10.2 µM.

`O=c1cc(CSc2nnc(-c3ccccc3)n2NCc2ccc(O)cc2O)occ1O` was tested, and the inhibition [1] was “Dose-dependent effect”, the IC50 (Tyrosinase) was 1.35 µM and the inhibition [2] was “Active”.

For `O=c1cc(CSc2nncn2/N=C/c2ccc(O)cc2O)occ1O`, the IC50 (Tyrosinase) was 9.6 µM.

`CCc1nnc(SCc2cc(=O)c(O)co2)n1NCc1ccccc1O` gave an IC50 (Tyrosinase) of 7.6 µM.
